Assay results from patent US4515811A, “Process for the resolution of d,1 2-(6-methoxy-2-naphthyl)propionic acid” (Syntex Corporation, priority 1980, dated 1985).
Where a name gives a salt, the structure may show the parent alone.

System: carrageenin-induced paw inflammation in the rat
Assay: not given
Conditions: Example 32; female rats, oral gavage at hour 0, carrageenin at hour 1, sacrificed hour 4; relative to phenylbutazone = 1, molar basis
Procedure: The anti-inflammatory activity of each of the compounds listed below is compared with the activity of phenylbutazone by means of the carrageenin-induced rat paw inflammation test described below.
TEST FOR ANTI-INFLAMMATORY ACTIVITY UTILIZING CARRAGEENIN-INDUCED PAW INFLAMMATION IN THE RAT
Materials and Methods--Female rats weighing 80-90 grams are used. The test materials are given at hour 0 orally by gavage in 1 ml. aqueous vehicle. At hour 1, 0.05 ml. of a 1% solution (in 0.9% NaCl) of carrageenin is injected into the right hind paw. This injection causes an inflammation of the paw. The rats are sacrificed at hour 4, at which time both hind paws are removed and weighed separately.
End point: % increase in paw size calculated as follows: [formula]

| SMILES | Oral Anti-Inflammatory Activity (on a molar equivalent basis) (Phenylbutazone = 1) |
| --- | --- |
| COc1ccc2cc([C@H](C)C(=O)O)ccc2c1 [N-cyclohexyl-D-glucamine salt of d 2-(6-methoxy-2-naphthyl)p] [N-cyclohexyl-D-glucamine salt of d 2-(6-methoxy-2-naphthyl)propionic acid] | 11 |
| COc1ccc2cc([C@H](C)C(=O)O)ccc2c1 [N-ethyl-D-glucamine salt of d 2-(6-methoxy-2-naphthyl)propio] [N-ethyl-D-glucamine salt of d 2-(6-methoxy-2-naphthyl)propionic acid] | 17 |
| COc1ccc2cc([C@H](C)C(=O)O)ccc2c1 [N-n-butyl-D-glucamine salt of d 2-(6-methoxy-2-naphthyl)prop] [N-n-butyl-D-glucamine salt of d 2-(6-methoxy-2-naphthyl)propionic acid] | 5 |
| COc1ccc2cc([C@H](C)C(=O)O)ccc2c1 [N-n-octadecyl-D-glucamine salt of d 2-(6-methoxy-2-naphthyl)] [N-n-octadecyl-D-glucamine salt of d 2-(6-methoxy-2-naphthyl)propionic acid] | 7 |
| COc1ccc2cc([C@H](C)C(=O)O)ccc2c1 [N-n-octyl-D-glucamine salt of d 2-(6-methoxy-2-naphthyl)prop] [N-n-octyl-D-glucamine salt of d 2-(6-methoxy-2-naphthyl)propionic acid] | 17 |
| COc1ccc2cc([C@H](C)C(=O)O)ccc2c1 [N-n-propyl-D-glucamine salt of d 2-(6-methoxy-2-naphthyl)pro] [N-n-propyl-D-glucamine salt of d 2-(6-methoxy-2-naphthyl)propionic acid] | 20 |

Same assay, conditions: Example 33; test of Example 32 repeated; oral, female rats; relative to phenylbutazone = 1, molar basis

| SMILES | Oral Anti-Inflammatory Activity (on a molar equivalent basis) (Phenylbutazone = 1) |
| --- | --- |
| COc1ccc2cc([C@H](C)C(=O)O)ccc2c1 [N-cyclooctyl-D-glucamine salt of d 2-(6-methoxy-2-naphthyl)p] [N-cyclooctyl-D-glucamine salt of d 2-(6-methoxy-2-naphthyl)propionic acid] | 20 |
| COc1ccc2cc([C@H](C)C(=O)O)ccc2c1 [N-cyclopropyl-D-glucamine salt of d 2-(6-methoxy-2-naphthyl)] [N-cyclopropyl-D-glucamine salt of d 2-(6-methoxy-2-naphthyl)propionic acid] | 9 |

System: not listed separately
Assay: Solubility of resolving agent in water
Assay type: physicochemical
Conditions: not given

| solubility in water (in words) | SMILES |
| --- | --- |
| substantially insoluble in water | CCCCCCCCNC[C@H](O)[C@@H](O)[C@H](O)[C@H](O)CO [N-n-octyl-D-glucamine] |
